Several values for one entry are separate records, joined by “and”; a condition that tells them apart may be missing. Equal entries are not always repeated. Inconclusive results and toxic doses are left out. No stated cut-off is given here; in the data, active means T/C of 150% or more; inactive means T/C below 125%.
Test system: L1210 leukemia ip in BDF1 mice, survival T/C
Assay: NCI In Vivo Anticancer Drug Screen. Data for tumor model L1210 Leukemia (intraperitoneal) in B6D2F1 (BDF1) mice
Conditions: endpoint: mean survival time, higher = longer survival
How it was run: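 Survival endpoint. Drug-treated group vs vehicle group, expressed as T divided by C. Tumor passaged by transplantation.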

[1] = dose: 100.0 mg/kg/injection, schedule: Q04DX003 (ip), vehicle: Klucel (hydroxypropylcellulose) (HPC)
[2] = dose: 100.0 mg/kg/injection, schedule: Q01DX009 (ip), vehicle: saline
[3] = dose: 200.0 mg/kg/injection, schedule: Q01DX009 (ip), vehicle: saline
[4] = dose: 400.0 mg/kg/injection, schedule: Q01DX009 (ip), vehicle: saline
[5] = dose: 25.0 mg/kg/injection, schedule: Q04DX002 (ip), vehicle: Klucel (hydroxypropylcellulose) (HPC)
[6] = dose: 50.0 mg/kg/injection, schedule: Q04DX002 (ip), vehicle: Klucel (hydroxypropylcellulose) (HPC)
[7] = dose: 50.0 mg/kg/injection, schedule: Q01DX001 (ip), vehicle: carboxymethylcellulose (CMC)
[8] = dose: 100.0 mg/kg/injection, schedule: Q04DX003 (ip), vehicle: saline
[9] = dose: 100.0 mg/kg/injection, schedule: Q04DX003 (ip), vehicle: saline with Tween-80
[10] = dose: 200.0 mg/kg/injection, schedule: Q04DX003 (ip), vehicle: saline with Tween-80
[11] = dose: 400.0 mg/kg/injection, schedule: Q04DX003 (ip), vehicle: saline with Tween-80
[12] = dose: 100.0 mg/kg/injection, schedule: Q01DX009 (ip), vehicle: Klucel (hydroxypropylcellulose) (HPC)
[13] = dose: 100.0 mg/kg/injection, schedule: Q04DX002 (ip), vehicle: Klucel (hydroxypropylcellulose) (HPC)
[14] = dose: 200.0 mg/kg/injection, schedule: Q01DX009 (ip), vehicle: Klucel (hydroxypropylcellulose) (HPC)
[15] = dose: 200.0 mg/kg/injection, schedule: Q04DX002 (ip), vehicle: Klucel (hydroxypropylcellulose) (HPC)
[16] = dose: 400.0 mg/kg/injection, schedule: Q01DX009 (ip), vehicle: Klucel (hydroxypropylcellulose) (HPC)
[17] = dose: 400.0 mg/kg/injection, schedule: Q04DX002 (ip), vehicle: Klucel (hydroxypropylcellulose) (HPC)

Measured: T/C

CCC(C#N)(CCN(CC=C(C)C)CC=C(C)C)c1cccc2ccccc12 (configuration not stated)
inactive: [1] 96 % of control

NCC1OC(OC2C(CO)OC(OC3C(O)C(N)CC(N)C3OC3OC(CO)C(O)CC3N)C2O)C(N)C(O)C1OC1OC(CO)C(O)C(O)C1O (configuration not stated)
inactive: dose: 100.0 mg/kg/injection, schedule: Q01DX005 (ip), vehicle: saline 96 % of control | [2] 100 % of control | dose: 200.0 mg/kg/injection, schedule: Q01DX005 (ip), vehicle: saline 101 % of control | [3] 110 % of control | dose: 400.0 mg/kg/injection, schedule: Q01DX005 (ip), vehicle: saline 101 % of control | [4] 100 % of control

CSc1nnc(C)c(=O)[nH]1
inactive: dose: 100.0 mg/kg/injection, schedule: Q01DX001 (ip), vehicle: saline with Tween-80 100 % of control | dose: 200.0 mg/kg/injection, schedule: Q01DX001 (ip), vehicle: saline with Tween-80 102 % of control | dose: 400.0 mg/kg/injection, schedule: Q01DX001 (ip), vehicle: saline with Tween-80 97 % of control

CC(=O)CC(=O)Nc1nc2ccccc2s1
inactive: [1] 92 % of control | dose: 200.0 mg/kg/injection, schedule: Q04DX003 (ip), vehicle: Klucel (hydroxypropylcellulose) (HPC) 103 % of control | dose: 400.0 mg/kg/injection, schedule: Q04DX003 (ip), vehicle: Klucel (hydroxypropylcellulose) (HPC) 97 % of control

C1CC2OC2CCC2OC12 (configuration not stated)
inactive: dose: 100.0 mg/kg/injection, schedule: Q01DX001 (ip), vehicle: other 95 % of control | dose: 200.0 mg/kg/injection, schedule: Q01DX001 (ip), vehicle: other 106 % of control | dose: 400.0 mg/kg/injection, schedule: Q01DX001 (ip), vehicle: other 101 % of control

CSC1SC(C)CC(C)S1 (configuration not stated)
inactive: dose: 12.5 mg/kg/injection, schedule: Q04DX002 (ip), vehicle: Klucel (hydroxypropylcellulose) (HPC) 95 % of control | [5] 92 % of control | [6] 98 % of control

CC(N)C(=O)NC(Cc1ccccc1)C(=O)O (configuration not stated)
inactive: dose: 100.0 mg/kg/injection, schedule: Q01DX001 (ip), vehicle: acetone 101 % of control | dose: 200.0 mg/kg/injection, schedule: Q01DX001 (ip), vehicle: acetone 97 % of control | dose: 400.0 mg/kg/injection, schedule: Q01DX001 (ip), vehicle: acetone 101 % of control

CN(C)C(=O)C(c1ccccc1)[P+](C)(c1ccccc1)c1ccccc1 (configuration not stated)
inactive: dose: 75.0 mg/kg/injection, schedule: Q01DX001 (ip), vehicle: other 95 % of control

O=C1C(=O)c2ccccc2C(O)=C1c1ccccc1
inactive: [7] 114 % of control

CCOC(=O)C1=C(C)NC(C)=C(C(=O)OCC)C1
inactive: dose: 50.0 mg/kg/injection, schedule: Q01DX009 (ip), vehicle: saline 101 % of control | [2] 96 % of control | [8] 104 % of control | [3] 96 % of control | dose: 200.0 mg/kg/injection, schedule: Q04DX003 (ip), vehicle: saline 108 % of control | [4] 101 % of control | dose: 400.0 mg/kg/injection, schedule: Q04DX003 (ip), vehicle: saline 95 % of control

CCN(CC)CCNC1CCCCC1
inactive: [9] 94 % of control

S=C=Nc1cccc(N=C=S)c1
inactive: dose: 5.0 mg/kg/injection, schedule: Q01DX001 (ip), vehicle: acetone 105 % of control | dose: 10.0 mg/kg/injection, schedule: Q01DX001 (ip), vehicle: acetone 124 % of control | dose: 20.0 mg/kg/injection, schedule: Q01DX001 (ip), vehicle: acetone 100 % of control

O=Cc1sc2cc[nH]c2c1O
inactive: [9] 100 % of control | [10] 97 % of control | [11] 94 % of control

C=CCNC(=O)Oc1cccc(NC(=O)/C=C/C)c1
inactive: dose: 100.0 mg/kg/injection, schedule: Q01DX009 (ip), vehicle: saline with Tween-80 88 % of control | [9] 97 % of control | [10] 95 % of control | [11] 92 % of control

NS(=O)(=O)c1ccc(NC(=O)Nc2cccc(C(F)(F)F)c2)cc1
inactive: [12] 97 % of control | [13] 94 % of control | [14] 91 % of control | [15] 91 % of control | [16] 94 % of control | [17] 97 % of control

COc1cccc(/C=C/[N+](=O)[O-])c1OCc1ccccc1
inactive: dose: 12.5 mg/kg/injection, schedule: Q04DX003 (ip), vehicle: saline with Tween-80 117 % of control | dose: 25.0 mg/kg/injection, schedule: Q04DX003 (ip), vehicle: saline with Tween-80 95 % of control | dose: 50.0 mg/kg/injection, schedule: Q04DX003 (ip), vehicle: saline with Tween-80 111 % of control

C=CC/C=C/CCC
inactive: [7] 88 % of control | dose: 200.0 mg/kg/injection, schedule: Q01DX001 (ip), vehicle: carboxymethylcellulose (CMC) 88 % of control | dose: 400.0 mg/kg/injection, schedule: Q01DX001 (ip), vehicle: carboxymethylcellulose (CMC) 90 % of control

O=[N+]([O-])/C=C/c1ccccc1F
inactive: dose: 18.75 mg/kg/injection, schedule: Q04DX003 (ip), vehicle: Klucel (hydroxypropylcellulose) (HPC) 95 % of control | dose: 37.5 mg/kg/injection, schedule: Q04DX003 (ip), vehicle: Klucel (hydroxypropylcellulose) (HPC) 98 % of control | dose: 75.0 mg/kg/injection, schedule: Q04DX003 (ip), vehicle: Klucel (hydroxypropylcellulose) (HPC) 91 % of control

Nc1nc(N)c(C=Nc2ccc(Br)cc2)c(Nc2ccc(Br)cc2)n1
inactive: dose: 50.0 mg/kg/injection, schedule: Q01DX001 (ip), vehicle: alcohol 100 % of control

COC1OC(CCl)C(OS(C)(=O)=O)C(OC(=O)c2ccccc2)C1OC(=O)c1ccccc1 (configuration not stated)
inactive: [5] 102 % of control | [6] 97 % of control | [13] 102 % of control

NC(=S)Nc1cccc(Cl)c1
inactive: dose: 25.0 mg/kg/injection, schedule: Q04DX003 (ip), vehicle: Klucel (hydroxypropylcellulose) (HPC) 96 % of control | dose: 50.0 mg/kg/injection, schedule: Q04DX003 (ip), vehicle: Klucel (hydroxypropylcellulose) (HPC) 100 % of control | [1] 106 % of control

CCCCOc1c(Cl)c(Cl)c(OP(=O)(OCCCC)OCCCC)c(Cl)c1Cl
inactive: dose: 100.0 mg/kg/injection, schedule: Q04DX002 (ip), vehicle: other 103 % of control | dose: 200.0 mg/kg/injection, schedule: Q04DX002 (ip), vehicle: other 88 % of control | dose: 400.0 mg/kg/injection, schedule: Q04DX002 (ip), vehicle: other 103 % of control

[Cl][Pt+2][Cl].[NH-]c1ccc(Cl)cc1[NH-]
active: dose: 12.5 mg/kg/injection, schedule: Q04DX003 (ip), vehicle: saline 178 % of control
inactive: dose: 25.0 mg/kg/injection, schedule: Q04DX003 (ip), vehicle: saline 113 % of control | [8] 105 % of control and 108 % of control | dose: 800.0 mg/kg/injection, schedule: Q04DX003 (ip), vehicle: saline 103 % of control

FC(F)(F)c1ccccc1NC(=S)N(Cc1ccccc1)Cc1ccccc1
inactive: [12] 92 % of control | [13] 110 % of control | [14] 103 % of control | [15] 92 % of control | [16] 96 % of control | [17] 100 % of control

From PubChem BioAssay AID248 (DTP/NCI, 2004)
